Source: US20260294949A1, “SUBSTITUTED BICYCLIC HETEROCYCLE COMPOUNDS, COMPOSITIONS, AND USES THEREOF” (Lakewood Amedex, Inc., priority 2023, published 2026)

Assays:
Format in all cases: cell-based
[1] = tested on: Staphylococcus aureus (43330); assay: MIC, broth microdilution (CLSI), Staphylococcus aureus (43330); conditions: pH 3, 18 to 24 hours
Description: (§1) MIC testing is conducted using the broth (Mueller Hinton Broth) microdilution procedures relevant to each organism group as established by the Clinical and Laboratory Standards Institute (CLSI; 3-7). MIC plates are prepared in accordance with CLSI (3-7). To prepare the test plates, automated liquid handlers are used to conduct serial dilutions and liquid transfers. Automated liquid handlers utilized in this study include the Multidrop 384 (Labsystems, Helsinki, Finland) and the Biomek 2000 (Beckman Coulter, Fullerton CA). The solution is diluted to desired pH using 1 M Citric Acid or 1 M NaOH buffer. A standardized inoculum of each test organism is prepared per CLSI methods (3, 5-7) to equal a 0.5 McFarland standard in the appropriate media followed by an additional 1:20 dilution (1:10 for anaerobes).
(§2) The plates are then inoculated with 10 μL of the diluted 0.5 McFarland suspension using the Biomek 2000 from low to high drug concentration, resulting in a final concentration of approximately 5×10^5 CFU/mL per well. An un-inoculated plate is incubated for the purpose of assessing solubility of the drug in the test media. The plates are stacked 3 to 4 high, covered with a sterile lid on the top plate, and incubated for 18 to 24 hours according to CLSI. The MIC is recorded as the lowest concentration of respective compound that inhibited visible growth of the organism.

[2] = tested on: Escherichia coli (25922); assay: MIC, broth microdilution (CLSI), Escherichia coli (25922); conditions: pH 3, 18 to 24 hours
Description: as §1, §2

[3] = tested on: Candida albicans (22972); assay: MIC, broth microdilution (CLSI), Candida albicans (22972); conditions: pH 3, 18 to 24 hours
Description: as §1, §2

[4] = tested on: Pseudomonas aeruginosa (27853); assay: MIC, broth microdilution (CLSI), Pseudomonas aeruginosa (27853); conditions: pH 3, 18 to 24 hours
Description: as §1, §2

[5] = tested on: Pseudomonas aeruginosa (0103); assay: MIC, broth microdilution (CLSI), Pseudomonas aeruginosa (0103); conditions: pH 4-5, 18 to 24 hours
Description: as §1, §2

[6] = tested on: Pseudomonas aeruginosa (6234); assay: MIC, broth microdilution (CLSI), Pseudomonas aeruginosa (6234); conditions: pH 4-5, 18 to 24 hours
Description: as §1, §2

[7] = tested on: Escherichia coli (0102); assay: MIC, broth microdilution (CLSI), Escherichia coli (0102); conditions: pH 4-5, 18 to 24 hours
Description: as §1, §2

[8] = tested on: Escherichia coli (6260); assay: MIC, broth microdilution (CLSI), Escherichia coli (6260); conditions: pH 4-5, 18 to 24 hours
Description: as §1, §2

[9] = tested on: Pseudomonas aeruginosa (6160); assay: MIC, broth microdilution (CLSI), Pseudomonas aeruginosa (6160); conditions: pH 4-5, 18 to 24 hours
Description: as §1, §2

[10] = tested on: Escherichia coli (6259); assay: MIC, broth microdilution (CLSI), Escherichia coli (6259); conditions: pH 4-5, 18 to 24 hours
Description: as §1, §2

[11] = tested on: Pseudomonas aeruginosa (6328); assay: MIC, broth microdilution (CLSI), Pseudomonas aeruginosa (6328); conditions: pH 4-5, 18 to 24 hours
Description: as §1, §2

[12] = tested on: Escherichia coli (6098); assay: MIC, broth microdilution (CLSI), Escherichia coli (6098); conditions: pH 4-5, 18 to 24 hours
Description: as §1, §2

[13] = tested on: Pseudomonas aeruginosa (6326); assay: MIC, broth microdilution (CLSI), Pseudomonas aeruginosa (6326); conditions: pH 4-5, 18 to 24 hours
Description: as §1, §2

[14] = tested on: Escherichia coli (6258); assay: MIC, broth microdilution (CLSI), Escherichia coli (6258); conditions: pH 4-5, 18 to 24 hours
Description: as §1, §2

| Structure (SMILES) | MIC [1] | MIC [2] | MIC [3] | MIC [4] | MIC [5] | MIC [6] | MIC [7] | MIC [8] | MIC [9] | MIC [10] | MIC [11] | MIC [12] | MIC [13] | MIC [14] |
| --- | --- | --- | --- | --- | --- | --- | --- | --- | --- | --- | --- | --- | --- | --- |
| CCCCOP(=O)(O)OC[C@H]1O[C@@H](n2cnc3c(N)ncnc32)C[C@@H]1O [LAI-017, ((2R,3S,5R)-5-(6-amino-9H-purin-9-yl)-3-hydroxytetrahydrofuran-2-yl)methyl butyl hydrogen phosphate] | 25 mg/mL | 25 mg/mL | 5 mg/mL | 5 mg/mL |  |  |  |  |  |  |  |  |  |  |
| CCCCOP(=O)(O)OC[C@H]1O[C@@H](n2ncc3c(N)ncnc32)C[C@@H]1O [LAI-018, ((2R, 3S, 5R)-5-(4-amino-1H-pyrazolo [3,4-d]pyrimidine-1-yl)-3-hydroxytetra hydrofuran-2-yl)methyl butyl hydrogen phosphate] | 25 mg/mL | 25 mg/mL | 5 mg/mL | 25 mg/mL |  |  |  |  |  |  |  |  |  |  |
| CCCCOP(=O)(O)OC[C@H]1O[C@@H](n2cnc3cnc(N)nc32)C[C@@H]1O [LAI-020, ((2R,3S,5R)-5-(2-amino-9H-purin-9-yl)-3-hydroxytetrahydrofuran-2-yl)-methyl butyl hydrogen phosphate] | 25 mg/mL | 25 mg/mL | 25 mg/mL | 5 mg/mL |  |  |  |  |  |  |  |  |  |  |
| CCCCOP(=O)(O)OC[C@H]1O[C@@H](n2cnc3c(=O)[nH]c(N)nc32)C[C@@H]1O [R-4, ((2R,3S,5R)-5-(2-amino-1,9-dihydro-6H-purin-6-one-9-yl)-3-hydroxytetrahydrofuran-2-yl)-methyl butyl hydrogen phosphate] |  |  |  |  | 25 mg/mL | 25 mg/mL | 50 mg/mL | 100 mg/mL | 50 mg/mL |  |  |  |  |  |
| CCCCOP(=O)(O)OC[C@H]1O[C@@H](n2cnc3c(=O)[nH]c(N)nc32)[C@H](OC)[C@@H]1O [R-8, ((2R,3R,4R,5R)-5-(2-amino-1,9-dihydro-6H-purin-6-one-9-yl)-4-methoxy-3-hydroxytetrahydrofuran-2-yl)-methyl butyl hydrogen phosphate] |  |  |  |  | 100 mg/mL | 50 mg/mL | 100 mg/mL | 100 mg/mL | 100 mg/mL | 100 mg/mL | 100 mg/mL | 100 mg/mL | 100 mg/mL | 100 mg/mL |
